For data set [1], the target named is T1, thymidylate synthase (TS) (Homo sapiens, UniProt P04818).
T1 construct: harvested, and lysed by freeze-fracturing; Following centrifugation of cell lysates, supernatants were assayed for protein content and TS catalytic activity; endogenous in cells; host or cells: G48a, U-251 MG and SNB-19 GBM cells
The data set is described as follows: TS catalytic activity assay in lysates of treated GBM cells. The following applies: G48a, U-251 MG and SNB-19 GBM cells; F10 10^−6 and 10^−5 M, raltitrexed 10^−6 M. It is filed as cell-based. As to the method: TS assays were conducted using procedures similar to those previously described. (Gmeiner et al., Enhanced DNA-directed effects of FdUMP[10] compared to 5FU. Nucleosides Nucleotides Nucleic Acids. 2004; 23(1-2):401-410.) GBM cells were plated at a density of 1.5×10^6 cells in 100 mm^2 plates. Cells were grown overnight in RPMI 1640 medium with 10% FBS. Either 5FU (Sigma), F10, or raltitrexed were then added at the indicated concentrations and the cells were incubated for 8, 16, 24, or 48 hrs, harvested, and lysed by freeze-fracturing. Following centrifugation of cell lysates, supernatants were assayed for protein content and TS catalytic activity as previously described. (Gmeiner et al., Enhanced DNA-directed effects of FdUMP[10] compared to 5FU. Nucleosides Nucleotides Nucleic Acids. 2004; 23(1-2):401-410.)

The subject of data set [2] is primary astrocyte cultures. Nature of the data set: Viability of primary astrocyte cultures. The note with it: same doses as for neurons (up to 1 μM).
The test system of the next data set is primary cortical neurons. The data set is described as follows: Viability of primary cortical neuronal cultures. The following applies: 1 μM, 72 hours in culture.
In data set [3] the test system is CNS malignancies included in the NCI 60 cell line panel. Nature of the data set: NCI 60 cell line screen, CNS malignancies of the panel. The data set is classed as cell-based, human. The following applies: several GBM cell lines.
The test system of the next data set is G48a cells. The data set is described as follows: Cytotoxicity (cell viability) towards G48a GBM cells. The data set is classed as cell-based, human. The following applies: G48a cell line; FIG. 1C.
Data set [4] has as its target T2, DNA Topoisomerase 1 (Top1) cleavage complex (Homo sapiens, UniProt P11387).
T2 construct: endogenous in cells; host or cells: SNB-19 and U-251 MG GBM cells
T2 sequence (P11387 2-765 limits assumed): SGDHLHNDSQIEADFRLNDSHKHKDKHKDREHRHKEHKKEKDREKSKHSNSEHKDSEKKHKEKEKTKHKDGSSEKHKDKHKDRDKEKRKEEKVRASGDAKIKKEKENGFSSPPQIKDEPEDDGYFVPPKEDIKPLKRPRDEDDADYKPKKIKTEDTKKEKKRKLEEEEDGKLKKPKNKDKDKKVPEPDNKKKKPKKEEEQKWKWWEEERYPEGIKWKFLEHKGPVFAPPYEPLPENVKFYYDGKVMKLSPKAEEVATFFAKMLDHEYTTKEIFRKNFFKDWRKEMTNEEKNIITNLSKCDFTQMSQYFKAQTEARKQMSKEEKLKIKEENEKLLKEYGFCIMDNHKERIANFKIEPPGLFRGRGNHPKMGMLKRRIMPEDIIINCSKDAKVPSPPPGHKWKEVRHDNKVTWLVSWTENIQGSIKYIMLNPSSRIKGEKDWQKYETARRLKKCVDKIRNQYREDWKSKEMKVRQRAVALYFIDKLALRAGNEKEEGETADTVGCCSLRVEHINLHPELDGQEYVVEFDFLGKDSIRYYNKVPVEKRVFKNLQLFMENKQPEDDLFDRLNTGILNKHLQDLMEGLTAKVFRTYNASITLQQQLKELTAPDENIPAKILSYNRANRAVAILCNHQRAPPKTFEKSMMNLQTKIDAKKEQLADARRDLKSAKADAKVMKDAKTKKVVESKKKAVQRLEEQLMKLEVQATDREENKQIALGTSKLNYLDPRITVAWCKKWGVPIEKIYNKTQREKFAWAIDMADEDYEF
The data set is described as follows: In vivo complex of enzyme (ICE) bioassay. It is filed as cell-based. The following applies: SNB-19 and U-251 MG cells. The method, then: G48a and primary explant cells derived from patient GBM tumors were grown in RPMI 1640 (Lonza, Rockland, Me.) supplemented with 10% FBS and glucose (2 g/L). G48a-luciferase cells were produced by lentiviral infection using a GFP-tagged vector. Cells were selected using blastocydin (10 μg/mL). U-251 MG and SNB-19 cells were obtained from ATCC and grown in RPMI 1640 (Lonza, Rockland, Me.) supplemented with 10% FBS and glucose (2 g/L). U-251 MG cells were grown in DMEM supplemented with 10% FBS and non-essential amino acids. In vivo complex of enzyme (ICE) bioassays were completed using methods similar to those previously described. (Liao et al., A novel polypyrimidine antitumor agent FdUMP[10] induces thymineless death with topoisomerase I-DNA complexes. Cancer Res. 2005; 65(10:4844-4851) GBM cells were incubated with F10 at the indicated concentrations for 0-48 hrs. Thymidine (Thy) rescue was accomplished by adding Thy at 80 μM, as the 20 μM dose previously described (Wang et al., Mechanisms of acquired chemoresistance to 5-fluorouracil and tomudex: thymidylate synthase dependent and independent networks. Cancer Chemother Pharmacol. 2007; 59(6):839-845) was not effective for rescue. Cell samples were counted and equalized for cell number. Primary antibody (mouse anti-human DNA Top I, BD Pharmingen) was added at 1:500 dilution. Secondary antibody (Cell Signaling) was used at 1:1000. […]

The nature of data set [5]: Dose-finding / tolerability upon i.c. administration. It is filed as in vivo, nude mice. An excerpt:
The nanoscale size of F10 (length ˜3 nm), as well as its multiple negative charges, make penetration of the BBB following systemic delivery an inefficient process. Conversely, intra-cranial (i.c.) administration of F10 is expected to result in high local concentrations that may be therapeutically beneficial, particularly in light of the relatively strong cytotoxicity towards GBM cells and the minimal toxicity of F10 towards primary cortical neurons (FIG. 3A). Dose-finding studies in nude mice were performed to identify doses that were sufficiently well-tolerated to be evaluated in efficacy studies. F10 was dissolved in PBS and administered i.e. using an Alzet osmotic mini-pump over a 7 day period. Vehicle-only served as a control. […] These dose levels are considerably lower than those used in recent leukemia studies in which F10 was administered systemically (200 mg/kg qodx4) (Pardee et al., Unique dual targeting of thymidylate synthase and topoisomerase 1 by FdUMP[10] results in high efficacy against AML and low toxicity. Blood. 2012; 119(15):3561-3570), consistent with F10 being retained within the BBB upon i.c. administration.

Data set [6] relates to U138 cells. Nature of the data set: Clonogenic survival of U138 cells. It is filed as cell-based, human. The note with it: 1 nM FdUMP[10] and/or 10 nM AZD7762, drugs removed after 72 h, colonies counted 10 days post-treatment. As to the method:
500-2000 U138 cells were seeded into 60 mm dishes and treated with 1 nM FdUMP[10] (F1) and/or 10 nM AZD7726 (A2) and the drugs were removed after 72 h. Cells were fixed and stained with violet blue and colonies were counted using a colony counter 10 days post-treatment. […] The results are consistent with FdUMP[10]AZD7762 being synergistic at decreasing the clonogenicity of U138 cells.

For data set [7], the system named is U138 cells. Nature of the data set: Flow cytometry of DNA content and cleaved caspase 3 in U138 cells. It is filed as cell-based, human. As to the method: U138 cells were treated with 1 nM FdUMP[10] and/or 10 nM of AZD7762 for 9 or 1 h, respectively, prior to irradiation with a single dose of 6 Gy. Cells were harvested 24 h post-irradiation and analyzed for DNA content (A) and cleaved caspase 3 (B) by flow cytometry.

Data set [8] has as its system U138 cells. The data set is described as follows: Radiosensitization of U138 cells (clonogenic, 6 Gy). The data set is classed as cell-based, human. The following applies: FdUMP[10] and AZD7762 given before irradiation. The method, then:
FIG. 9. Treating human glioma U138 cells with FdUMP[10] and AZD7726 enhanced their radiosensitivity. 500-2000 U138 cells were seeded into 60 mm dishes and treated with 1 nM FdUMP[10] (F1) for 9 h and 10 nM AZD7726 (A2) for 1 h prior to irradiation with a single dose of 6 Gy. Cells were fixed and stained with violet blue and colonies were counted using a colony counter at 10 days post-treatment. The study indicates combined treatment U138 with FdUMP[10] and AZD7762 sensitize cells to radiation.
Radiation is cytotoxic as a consequence of unrepaired DNA damage. […] In these studies, FdUMP[10] was administered […] prior to irradiation and AZD7762 1 h prior to radiation. Though not wishing to be bound by theory, it is thought that radiosensitization results from induction of a thymineless state following FdUMP[10] treatment and disabling of HRR and abrogation of the G2 checkpoint following AZD7762 treatment. Under these conditions, DNA repair of radiation-induced DNA damage is inhibited due to lack of thymidine while inhibiting Rad51 activation prevents HRR which is important for repair of radiation-induced DNA DSBs (Helleday 2010). Abrogating the G2-checkpoint causes cells to enter mitosis with lethally-damaged DNA enhancing the cytotoxic effects of radiation.

The subject of the next data set is SF-268. The following applies: at or below lowest concentration evaluated; cited from earlier work.
Data set [9] concerns G48a orthotopic xenografts.
Experimental: G48a-luc were suspended into Hanks Balanced Salt Solution to a density of 10^5 cells/μL. Nude (nu/nu) 7-week old mice were obtained from NCI. Mice were anesthetized using a ketamine/xylazine mixture and placed on a small-animal, head-holding frame. A scalp incision was made to determine the drill-hole location, 1 mm right and 1 mm anterior to lambda. A 27-gauge needle attached to a 10 mL sterile Hamilton syringe (Hamilton, Reno, Nev.) was stereotactically inserted 3 mm below the dural surface and cells were injected into the deep white matter of the posterior thalamus. Cells were injected in a total of 5 μL over a five minute period. The syringe was removed two minutes after the injection was completed, retracting it at a rate of 0.5 mm per minute. After removal of the syringe, the hole was covered with cranio-plastic liquid. Animals were sutured, allowed to recover on a heating pad, and returned to their cages. Animal weight and behavior was monitored every three days.
Starting on day 21 after tumor cell implantation, mice were treated by intra-cerebral (i.c.) infusion (0.5 μL/h) of F10 at 3 concentrations (80, 120 and 160 mg/kg) for a duration of 7 days. Drug was prepared in phosphate buffered saline. Osmotic pumps (ALZET® model 1007D, Alzet, Cupertino, Calif.) were primed in sterile saline overnight at 37° C. according to manufacturer's specification. The pumps were then coupled to brain infusion kits (ALZET® model 3). Animals were anesthetized using a ketamine/xylazine mixture and placed on a small-animal head holding frame, and the location of initial injection (1 mm right and 1 mm anterior to lambda) was retraced. The cannula was then inserted to a depth of 3 mm and secured with cranio-plastic adhesive and the pump was placed subcutaneously between the shoulder blades. Animals were sutured, allowed to recover and evaluated for any motor deficits resulting from the surgical procedure. […] Animals were euthanized 24 hours post-treatment when body weight loss was above 12% or when behavior prevented normal activity.
Animals received an intraperitoneal (i.p.) injection of D-luciferin (150 mg/kg, stock solution 15 mg/mL in sterile PBS, Goldbio, St. Louis, Mo.), After 10 min, animals were anesthetized with isofluorane until non-responsive, and then placed in the imaging chamber. Three bioluminescent imaging acquisitions were collected at different exposure times (10, 60, 300 sec). Mice were allowed to recover and returned to their cages. Data were analyzed based on total photon flux emission (photons) in the region of interest over the intracranial space using Living Image software (Xenogen Corp.).
Animals were deeply anesthetized with an i.p injection of ketamine/xylazine and fixed by transcardial perfusion through the heart with PBS (pH=7.4) followed by 4% paraformaldehyde in PBS (PFA). Brains were removed and fixed overnight in 4% PFA. Brains were then cryoprotected in 30% sucrose-PBS at 4° C. for 2-3 days, Brains were embedded in tissue-freezing medium (Triangle Biomedical Sciences, Durham, N.C.) and sections were cut to a thickness of 10 μm, thawed onto SuperFrost Plus slides (Fisher, Pittsburgh, Pa.) and kept at −20° C. until further processing. Sections from vehicle- and F10-treated animals were thawed prior to exposure with primary antibodies. Endogenous peroxidase activity and non-specific biotin was quenched with Peroxide Blocking Kit and Biotin Blocking Kit, respectively (ScyTek Laboratories, Logan, Utah). Antigen retrieval was performed with 10 mM sodium citrate buffer, pH 6.0, by microwaving for 5 min. Slides were blocked with SuperBlock (ScyTek) and incubated with polyclonal EphA2 antibody (R&D Systems, Minneapolis, Minn.) overnight at 4° C.
In the next data set the test system is SF-295. The note with it: at or below lowest concentration evaluated; cited from earlier work.
Another data set relates to SF-539. The note with it: at or below lowest concentration evaluated; cited from earlier work.
Another data set has as its system SNB-19. The note with it: cited from earlier work.
Another data set concerns U-251 MG. The following applies: cited from earlier work.
The test system of data set [10] is CNS malignancies included in the NCI 60 cell line panel. The note with it: all CNS malignancies included in the NCI 60 cell line panel; cited from earlier work.
The mark [11] stands for this setting: with irradiation 6 Gy, 1 nM FdUMP[10] 9 h and/or 10 nM AZD7762 1 h before, 24 h post-irradiation.

Like-named read-outs stand apart in the source and are kept apart here.

Data on 4 molecules can be found in US20140255471A1, “METHOD OF TREATING BRAIN TUMORS” (Wake Forest University Health Sciences, priority 2013, published 2014).

Usually IC50 stands for the concentration at which inhibition is half-maximal. Read a low IC50 as greater potency. A word on the GI50: it is the concentration giving 50% growth inhibition.

T1 sequence (P04818 2-313 limits assumed): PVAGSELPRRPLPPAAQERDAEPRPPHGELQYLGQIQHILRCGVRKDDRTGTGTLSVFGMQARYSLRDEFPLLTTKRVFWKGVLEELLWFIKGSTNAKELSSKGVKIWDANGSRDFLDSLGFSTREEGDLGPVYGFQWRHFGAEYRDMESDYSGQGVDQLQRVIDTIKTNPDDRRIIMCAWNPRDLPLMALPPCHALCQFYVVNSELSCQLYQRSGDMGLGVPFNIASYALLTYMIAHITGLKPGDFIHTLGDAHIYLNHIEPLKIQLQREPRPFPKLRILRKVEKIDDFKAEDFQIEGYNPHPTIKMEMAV
Experimental for primary cortical neurons: Cortical neuronal cultures were prepared using previously described protocols. […] The tissue was further dissected into smaller pieces. After washes in cold PBS without Ca^+2/Mg^+2, tissue was incubated in 0.05% trypsin in PBS without Ca^+2/Mg^+2. Tissue was then dissociated in NB media using a blue-tip pipette. Dissociated cells were layered onto a 4% BSA cushion to remove debris. Cells were plated in NB media at a density 4×10^4 cells/well in a 24 well dish. After 24 hours, media was removed and replaced with fresh media with or without 5FU or F10. After 72 hours in culture, surviving neurons were counted. To be counted a cell had to have a phase-bright cell body and at least one neurite that was at least two times the diameter of the soma. Results are expressed as percent control (Mean±SD) where control represents cultures without the addition of 5FU or F10 (n=4 individual experiments with at least two wells per condition). Statistical significance was determined with a one-way ANOVA followed by the Bonferroni post-hoc test.

For the molecule `Cc1nc2ccc(CN(C)c3ccc(C(=O)N[C@@H](CCC(=O)O)C(=O)O)s3)cc2c(=O)[nH]1` [Raltitrexed, reference compound], the TS inhibition entry in data set [1] is recorded as “effectively inhibited TS”.
Turning to `O=c1[nH]cc(F)c(=O)[nH]1` [5FU, 5-fluorouracil], in [2], the “viability of primary astrocyte cultures, treated vs control” value is given as “no apparent differences in viability”. Moreover, the “decreased viability for cortical neurons relative to control” value with primary cortical neurons was “approximately 50%”.
On to FdUMP[10] [F10], for which, in [3], the “differential sensitivity for F10 relative to 5FU” value is on record as ~10,000 fold. In the data set on G48a cells, the IC50 was about 1000 nM. Further, the TS inhibition result in data set [1] is “inhibited TS completely”. Moreover, the Top1CC formation entry in data set [4] is reported as “induces Top1CC formation”. Also, in data set [5] (i.c., osmotic mini-pump over 7 days), the well-tolerated dose result is “up to 200 mg/kg”. For the same molecule, in [5] (mouse, in vivo), the “appearance and behaviour of mice” value was “light-sensitive, with eyes partially closed, and were more lethargic than mice treated with vehicle-only”. Also, in the data set on U138 cells [6], the survival fraction came to 0.84. In addition, the “DNA content / cell cycle” value with U138 cells [7] (1 nM FdUMP[10] and/or 10 nM AZD7762) is reported as “causes G2-arrest”. Also, the “cleaved caspase 3 (apoptosis)” value in the data set with U138 cells [7] (setting [11]) is listed as “result predominantly in apoptotic cells”. In addition, the radiosensitization result in the data set on U138 cells [8] is “neither FdUMP[10] nor AZD7762 are appreciably radiosensitizing”. Besides, the GI50 with SF-268 is at most 5 nM; in the data set on SF-295 it was at most 5 nM; with SF-539, at most 5 nM; in the data set with SNB-19 it was 170 nM; in the data set with U-251 MG, 115 nM; in data set [10], under 1000 nM. Also, the results for the “EphA2 staining, tumor-bearing side” value in [9] (80 mg/kg) and in data set [9] (120 mg/kg) were “only trace levels of EphA2 positive staining” and “no EphA2 staining”, respectively. Besides, in data set [9] (120 mg/kg i.c. over 7 days, p<0.01), the “mean tumor volumes (%-change in photon emission)” value is “significantly decreased relative to control”. In addition, the “extent of tumor cell necrosis (H&E)” value in [9] (120 mg/kg vs 80 mg/kg) is “greater tumor cell necrosis than the 80 mg/kg dose”. For the same molecule, the “luminescent signal (IVIS imaging)” value in [9] (160 mg/kg i.c. over 7 days) was “did not display decreased lumincescent signal”. The “treatment effect by histology” value in [9] (160 mg/kg i.c. over 7 days) was “significant treatment effect”. In data set [9] (80 and 120 mg/kg i.c. over 7 days), the “tumor regression (IVIS imaging)” value is reported as “significant tumor regression”. Further, the “necrosis in tumor tissue (H&E)” value in data set [9] (80 or 120 mg/kg i.c. over 7 days) is “extensive areas of necrosis selectively within tumor tissue”. For the same molecule, in data set [9] (mouse, in vivo), the “necrosis in contralateral side of brain (H&E)” value is recorded as “no observable necrosis”.
As for `NC(=O)Nc1cc(-c2cccc(F)c2)sc1C(=O)N[C@H]1CCCNC1` [AZD7762, reference compound], the survival fraction with U138 cells [6] worked out at 0.80. Moreover, the “cleaved caspase 3 (apoptosis)” value was “do not result in significant percent of cleaved caspase 3” in the data set on U138 cells [7] (setting [11]) and “do not result in significant percent of cleaved caspase 3” with U138 cells [7] (without irradiation, 10 nM AZD7762). For the same molecule, in the data set on U138 cells [8], the radiosensitization entry was “neither FdUMP[10] nor AZD7762 are appreciably radiosensitizing”.
